Structures can show the parent of a compound that is named as a salt.
Columns and labels:
[1] = tested on: recreational stimulant abusers; experiment: Intravenous study, treatment-emergent adverse events; conditions: SDX Cl 30 mg (N = 31), d-MPH HCl 15 mg (N = 30)
Procedure: (§1) A study was conducted in humans to assess the intravenous abuse potential of serdexmethylphenidate relative to unconjugated d-methylphenidate and placebo in recreational stimulant abusers. This was a Phase 1, randomized, double-blind study in which serdexmethylphenidate and d-methylphenidate were administered intravenously in recreational stimulant users with a history of non-oral abuse. In Part A of the study, subjects (Cohort 1) participated in a dose-escalation phase to determine the optimal dose of intravenous d-methylphenidate based on tolerability and abuse-related pharmacodynamic assessments. […] The doses of serdexmethylphenidate and d-methylphenidate are equivalent with respect to molar amount of d-methylphenidate. FDA-recommended abuse potential measures and blood samples were collected at different times after dosing. Safety assessments were performed throughout the study.

[2] = tested on: healthy, nondependent, recreational stimulant users; experiment: Oral abuse potential study, VAS pharmacodynamic assessments; conditions: for Mean Difference Any Effects Emax, B vs E / Mean Difference Bad Effects Emax, B vs E / Mean Difference Feeling Alert/Drowsy Emax, B vs E / Mean Difference Feeling High Emax, B vs E / Mean Difference Good Effects Emax, B vs E / Mean Difference Overall Drug Liking Emax, B vs E / Mean Difference Take Drug Again Emax, B vs E / Mean Difference Drug Liking Emax, B vs E: SDX Cl 240 mg vs placebo
[3] = Intravenous pharmacokinetic study (KP415.A03) in recreational stimulant users; conditions: human, in vivo, iv
Procedure: as §1

[4] = Focalin XR 80 mg vs SDX Cl 120 mg
[5] = Focalin XR 80 mg vs SDX Cl 240 mg
[6] = SDX Cl 120 mg vs placebo, listed as SDX chloride
[7] = phentermine HCl 60 mg vs SDX Cl 120 mg
[8] = phentermine HCl 60 mg vs SDX Cl 240 mg
[9] = phentermine HCl 60 mg vs SDX Cl 240 mg, listed as SDX chloride

COC(=O)[C@H](c1ccccc1)[C@H]1CCCCN1 [d-methylphenidate hydrochloride, d-threo-methylphenidate hydrochloride]
TEAE: Change in sustained attention [1]: 2 (6.7) n (%) | TEAE: Dry mouth [1]: 6 (20.0) n (%) | TEAE: Energy increased [1]: 1 (3.3) n (%) | TEAE: Euphoric mood [1]: 17 (56.7) n (%) | TEAE: Feeling abnormal [1]: 2 (6.7) n (%) | TEAE: Feeling hot [1]: 6 (20.0) n (%) | TEAE: Feeling jittery [1]: 2 (6.7) n (%) | TEAE: Feeling of relaxation [1]: 1 (3.3) n (%) | TEAE: Headache [1]: 1 (3.3) n (%) | TEAE: Heart rate increased [1]: 5 (16.7) n (%) | TEAE: Hyperhidrosis (sweaty hands) [1]: 4 (13.3) n (%) | TEAE: Hypervigilance [1]: 10 (33.3) n (%) | TEAE: Nausea [1]: 3 (10.0) n (%) | TEAE: Palpitations [1]: 2 (6.7) n (%) | TEAE: Paraesthesia (tingling) [1]: 2 (6.7) n (%) | TEAE: Sinus tachycardia [1]: 4 (13.3) n (%) | TEAE: Somnolence [1]: 4 (13.3) n (%) | TEAE: Tachycardia [1]: 4 (13.3) n (%)

COC(=O)[C@H](c1ccccc1)[C@H]1CCCCN1C(=O)OC[n+]1cccc(C(=O)N[C@@H](CO)C(=O)O)c1.[Cl-] [serdexmethylphenidate chloride]
Mean Difference Any Effects Emax, C vs A [2, 4]: statistically lower | Mean Difference Bad Effects Emax, C vs A [2, 4]: statistically lower | Mean Difference Feeling Alert/Drowsy Emax, C vs A [2, 4]: statistically lower | Mean Difference Feeling High Emax, C vs A [2, 4]: statistically lower | Mean Difference Good Effects Emax, C vs A [2, 4]: statistically lower | Mean Difference Overall Drug Liking Emax, C vs A [2, 4]: about 4.5 | Mean Difference Take Drug Again Emax, C vs A [2, 4]: not statistically significant | Mean Difference Overall Drug Liking Emax, C vs A ([2]; Focalin XR 80 mg vs SDX Cl 120 mg, listed as SDX chloride): not statistically significant | Mean Difference Drug Liking Emax, C vs A ([2]; Focalin XR 80 mg vs SDX Cl 120 mg, margin 10): at least 18.2 | Mean Difference Drug Liking Emax, C vs A ([2]; Focalin XR 80 mg vs SDX Cl 120 mg, margin 10, listed as SDX chloride): statistically significantly lower | Mean Difference Any Effects Emax, C vs B [2, 5]: statistically lower | Mean Difference Bad Effects Emax, C vs B [2, 5]: statistically lower | Mean Difference Feeling Alert/Drowsy Emax, C vs B [2, 5]: statistically lower | Mean Difference Feeling High Emax, C vs B [2, 5]: statistically lower | Mean Difference Good Effects Emax, C vs B [2, 5]: statistically lower | Mean Difference Overall Drug Liking Emax, C vs B [2, 5]: about 5.0 | Mean Difference Take Drug Again Emax, C vs B [2, 5]: not statistically significant | Mean Difference Overall Drug Liking Emax, C vs B ([2]; Focalin XR 80 mg vs SDX Cl 240 mg, listed as SDX chloride): not statistically significant | Mean Difference Drug Liking Emax, C vs B ([2]; Focalin XR 80 mg vs SDX Cl 240 mg, margin 10): at least 16.7 | Mean Difference Drug Liking Emax, C vs B ([2]; Focalin XR 80 mg vs SDX Cl 240 mg, margin 10, listed as SDX chloride): statistically significantly lower | Mean Difference Any Effects Emax, A vs E ([2]; SDX Cl 120 mg vs placebo): 11.0 | Mean Difference Bad Effects Emax, A vs E ([2]; SDX Cl 120 mg vs placebo): 1.3 | Mean Difference Feeling Alert/Drowsy Emax, A vs E ([2]; SDX Cl 120 mg vs placebo): 7.7 | Mean Difference Feeling High Emax, A vs E ([2]; SDX Cl 120 mg vs placebo): 10.4 | Mean Difference Good Effects Emax, A vs E ([2]; SDX Cl 120 mg vs placebo): 12.1 | Mean Difference Overall Drug Liking Emax, A vs E ([2]; SDX Cl 120 mg vs placebo): 3.8 | Mean Difference Take Drug Again Emax, A vs E ([2]; SDX Cl 120 mg vs placebo): 2.2 | Mean Difference Bad Effects Emax, A vs E [2, 6]: not statistically different | Mean Difference Feeling Alert/Drowsy Emax, A vs E [2, 6]: statistically higher | Mean Difference Good Effects Emax, A vs E [2, 6]: statistically higher | Mean Difference Overall Drug Liking Emax, A vs E [2, 6]: not statistically different | Mean Difference Take Drug Again Emax, A vs E [2, 6]: not statistically different | Mean Difference Drug Liking Emax, A vs E ([2]; SDX Cl 120 mg vs placebo, margin 11): 6.8 | Mean Difference Drug Liking Emax, A vs E ([2]; SDX Cl 120 mg vs placebo, margin 11, listed as SDX chloride): not statistically non-inferior | Drug Liking Emax, Median ([2]; SDX Cl 120 mg, bipolar VAS): 53.0 | Feeling Alert/Drowsy Emax, Median ([2]; SDX Cl 120 mg, bipolar VAS): 54.0 | Overall Drug Liking Emax, Median ([2]; SDX Cl 120 mg, bipolar VAS): 50.0 | Take Drug Again Emax, Median ([2]; SDX Cl 120 mg, bipolar VAS): 50.0 | Any Effects Emax, Median ([2]; SDX Cl 120 mg, unipolar VAS): 14.0 | Bad Effects Emax, Median ([2]; SDX Cl 120 mg, unipolar VAS): 0.0 | Feeling High Emax, Median ([2]; SDX Cl 120 mg, unipolar VAS): 7.0 | Good Effects Emax, Mean ([2]; SDX Cl 120 mg, unipolar VAS): 27.0 | Good Effects Emax, Median ([2]; SDX Cl 120 mg, unipolar VAS): 10.0 | Mean Difference Any Effects Emax, B vs E [2]: 20.5 | Mean Difference Bad Effects Emax, B vs E [2]: 8.6 | Mean Difference Feeling Alert/Drowsy Emax, B vs E [2]: 11.2 | Mean Difference Feeling High Emax, B vs E [2]: 18.8 | Mean Difference Good Effects Emax, B vs E [2]: 17.4 | Mean Difference Overall Drug Liking Emax, B vs E [2]: 3.3 | Mean Difference Take Drug Again Emax, B vs E [2]: 1.7 | Mean Difference Any Effects Emax, B vs E ([2]; listed as SDX chloride): statistically higher | Mean Difference Bad Effects Emax, B vs E ([2]; listed as SDX chloride): statistically higher | Mean Difference Feeling Alert/Drowsy Emax, B vs E ([2]; listed as SDX chloride): statistically higher | Mean Difference Feeling High Emax, B vs E ([2]; listed as SDX chloride): statistically higher | Mean Difference Good Effects Emax, B vs E ([2]; listed as SDX chloride): statistically higher | Mean Difference Overall Drug Liking Emax, B vs E ([2]; listed as SDX chloride): not statistically different | Mean Difference Take Drug Again Emax, B vs E ([2]; listed as SDX chloride): not statistically different | Mean Difference Drug Liking Emax, B vs E ([2]; margin 11): 8.3 | Mean Difference Drug Liking Emax, B vs E ([2]; margin 11, listed as SDX chloride): not statistically non-inferior | Mean Difference Any Effects Emax, D vs A [2, 7]: statistically lower | Mean Difference Bad Effects Emax, D vs A [2, 7]: statistically lower | Mean Difference Feeling Alert/Drowsy Emax, D vs A [2, 7]: statistically lower | Mean Difference Feeling High Emax, D vs A [2, 7]: statistically lower | Mean Difference Good Effects Emax, D vs A [2, 7]: statistically lower | Mean Difference Overall Drug Liking Emax, D vs A [2, 7]: about 14.9 | Mean Difference Take Drug Again Emax, D vs A [2, 7]: statistically lower | Mean Difference Overall Drug Liking Emax, D vs A ([2]; phentermine HCl 60 mg vs SDX Cl 120 mg, listed as SDX chloride): statistically lower | Mean Difference Drug Liking Emax, D vs A ([2]; phentermine HCl 60 mg vs SDX Cl 120 mg, margin 10): at least 15.5 | Mean Difference Drug Liking Emax, D vs A ([2]; phentermine HCl 60 mg vs SDX Cl 120 mg, margin 10, listed as SDX chloride): statistically significantly lower | Mean Difference Any Effects Emax, D vs B [2, 8]: statistically lower | Mean Difference Bad Effects Emax, D vs B [2, 8]: statistically similar | Mean Difference Feeling Alert/Drowsy Emax, D vs B [2, 8]: statistically lower | Mean Difference Feeling High Emax, D vs B [2, 8]: statistically lower | Mean Difference Good Effects Emax, D vs B [2, 8]: statistically lower | Mean Difference Overall Drug Liking Emax, D vs B [2, 8]: about 15.3 | Mean Difference Take Drug Again Emax, D vs B [2, 8]: 15.4 | Mean Difference Overall Drug Liking Emax, D vs B [2, 9]: statistically lower | Mean Difference Take Drug Again Emax, D vs B [2, 9]: statistically lower | Mean Difference Drug Liking Emax, D vs B ([2]; phentermine HCl 60 mg vs SDX Cl 240 mg, margin 10): at least 14.0 | Mean Difference Drug Liking Emax, D vs B ([2]; phentermine HCl 60 mg vs SDX Cl 240 mg, margin 10, listed as SDX chloride): not statistically greater than 10 points | AUCinf [3]: 31.0 | AUCinf, GLSM [3]: 28.9 ng·h/mL | AUCinf, GLSM Ratio A/B [3]: 12.2% | AUClast [3]: 25.7 | AUClast, GLSM [3]: 23.8 ng·h/mL | AUClast, GLSM Ratio A/B [3]: 10.2% | Cmax [3]: 12.9 ng/mL | Cmax, GLSM [3]: 12.1 ng/mL | Cmax, GLSM Ratio A/B [3]: 20.8% | T1/2 [3]: 8.23 h | Tmax [3]: 5.93 min | TEAE: Change in sustained attention [1]: 0 (0.0) n (%) | TEAE: Dry mouth [1]: 0 (0.0) n (%) | TEAE: Energy increased [1]: 2 (6.5) n (%) | TEAE: Euphoric mood [1]: 4 (12.9) n (%) | TEAE: Feeling abnormal [1]: 1 (3.2) n (%) | TEAE: Feeling hot [1]: 2 (6.5) n (%) | TEAE: Feeling jittery [1]: 0 (0.0) n (%) | TEAE: Feeling of relaxation [1]: 0 (0.0) n (%) | TEAE: Headache [1]: 1 (3.2) n (%) | TEAE: Heart rate increased [1]: 0 (0.0) n (%) | TEAE: Hyperhidrosis (sweaty hands) [1]: 1 (3.2) n (%) | TEAE: Hypervigilance [1]: 4 (12.9) n (%) | TEAE: Nausea [1]: 0 (0.0) n (%) | TEAE: Palpitations [1]: 0 (0.0) n (%) | TEAE: Paraesthesia (tingling) [1]: 0 (0.0) n (%) | TEAE: Sinus tachycardia [1]: 0 (0.0) n (%) | TEAE: Somnolence [1]: 1 (3.2) n (%) | TEAE: Tachycardia [1]: 0 (0.0) n (%)

Source: patent US20200237742A1, “Serdexmethylphenidate Conjugates, Compositions And Methods Of Use Thereof” (priority 2018, published 2020)
